What was measured:
Type in all cases: in vivo
[1] = test system: Velvetleaf; experiment: Example 4: container-grown velvetleaf, backpack sprayer, necrosis and control; details: for % Necrosis After 1 Day / % Control 5 Days / % Control 9 Days / % Control 21 Days: velvetleaf, chlorimuron 0.31 lb.ai/A, dimethyl azelate 1.5 % W/W, 12 gal/A spray
Method: Chlorimuron is a sulfonylurea-type postemergence herbicide, sold by duPont under the trade name “Classic”. Dimethyl azelate (80% technical grade with 20% emulsifier) was added with the dilute herbicidal spray solution to determine if the rapidity and effectiveness of weed control was improved. A single nozzle flat fan wand backpack sprayer with C02 propellant calibrated for 12 gal/A spray volume was used to apply the treatments with a handheld wand applicator and constant walking speed. Velvetleaf plants of 6 to 8 inch height with 3 plants per 16 fl oz container in soil-less media were treated with the mixtures shown in the table below. Each treatment was applied to 3 containers to provide 3 replications per treatment. The dilute spray solutions were agitated during application. The effects of the treatment were observed daily for 21 days with the following results: […]

[2] = test system: Mugwort (Artemisia vulgaris L.); experiment: Example 3: container-grown mugwort, spray treatment, necrosis and control; details: DMA 1.5 % W/W, 40 gal/A spray; for % Necrosis Day 1: Day 1, glyphosate 0.5 % W/W; for % Necrosis Day 3: Day 3, glyphosate 0.5 % W/W; for % Control Day 9: Day 9, glyphosate 0.5 % W/W; for % Control Day 12: Day 12, glyphosate 0.5 % W/W; for % Control Day 15: Day 15, glyphosate 0.5 % W/W; for % Control Day 19: Day 19, glyphosate 0.5 % W/W
Method: Mugwort (Artemisia vulgaris L.) rhizomes 2 to 3 inches in length were collected from established plants and planted into soil-less media in 16 fl. oz. size containers. Each container was a replicate and contained one plant. On Day 0, 14 to 18 inch height single stem plants of mugwort were treated with the solutions shown in Table 1 with calibrated hand pump sprayers with constant agitation. Each plant was sprayed with 14 hand pumps for a nominal 40 gal/A spray volume application. Treatments were irrigated and fertilized as needed.

[3] = test system: corn (Zea mays L.); experiment: Example 6 Study 2: potted corn, spray treatment, necrosis and control; details: sethoxydin 0.01 % W/W, dimethyl azelate 3 % W/W, 13 gal/A spray; for % Necrosis After 3 Day: 3 days
Method: Rye (Secale cereale L) was grown in 16 fl. oz. containers in soil less media until 4 inches in height and then treated with the herbicidal compositions shown in Table 1 by spraying the herbicidal compositions with 4 pumps of a calibrated hand pump sprayer. The spray volume delivered was 25 gal/Acre. The containers contained approximately 12 rye plants per pot and each container was one replication. Treatments were in full sun with no wind. The effects of the treatments were observed over 3 weeks with the following results recorded: Sethoxydin, a cyclohexadione class herbicide, was obtained from BASF Corp. as “Poast”. The dimethyl azelate was a technical grade obtained from Cognis Corp. Another identical study was conducted with corn (Zea mays L.) with 3 plants per pot and 2 replications. The treatments were applied as 2 pumps per pot for a 13 gal/A spray volume to 6 inch height corn plants.

[4] = test system: Rye (Secale cereale L); experiment: Example 6 Study 1: container-grown rye, spray treatment, necrosis and control; details: sethoxydin 0.01 % W/W, dimethyl azelate 3 % W/W, 25 gal/Acre spray; for % Necrosis After 3 Day: 3 days
Method: Rye (Secale cereale L) was grown in 16 fl. oz. containers in soil less media until 4 inches in height and then treated with the herbicidal compositions shown in Table 1 by spraying the herbicidal compositions with 4 pumps of a calibrated hand pump sprayer. The spray volume delivered was 25 gal/Acre. The containers contained approximately 12 rye plants per pot and each container was one replication. Treatments were in full sun with no wind. The effects of the treatments were observed over 3 weeks with the following results recorded: Sethoxydin, a cyclohexadione class herbicide, was obtained from BASF Corp. as “Poast”. The dimethyl azelate was a technical grade obtained from Cognis Corp.

[5] = test system: Momingglory, pitted (Ipomoea lacunosa L.); experiment: Example 5: potted pitted morningglory, spray treatment, epinasty and control; details: DMA 2.0 % W/W, 12 gpa spray
Method: Momingglory, pitted (Ipomoea lacunosa L.) was seeded into soil-less media in 16 fl oz plastic pots with 3 plants established per pot. Each pot was a replication. When the morningglory plants had two true leaves, control treatments were applied by 2 manual hand pumps from a calibrated hand-pump sprayer. The spray application was a nominal 12 gpa spray volume. The Day 0 treatments were applied as 2 replications with constant agitation of the dilute spray solution. Treatments were evaluated for a 21 day interval after application as follows: […]

[6] = test system: a variety of weeds; experiment: Example 1: whole plot, summary of visual effect in words; details: Example 1 plot; after one day
Method: A quart of glyphosate herbicide was prepared using the label recommendations of the manufacturer (Monsanto) by adding 18 ml. (0.625 liq. oz.) of “Roundup® Super Concentrate” (41% isopropyl glyphosate), to water and bringing the final solution to 32 oz. liquid (Sol. A). To another 18 ml. of “Roundup Concentrate” was added 18 ml. of dimethyl azelate and this mixture diluted with water to 32 liq. oz. (Sol. B). Thus, each solution contained the same amount of glyphosate while Sol. B also contained 2% dimethyl azelate.
Sol. A was applied with a hand sprayer on a 2 ft. by 3 ft. plot of ground containing a variety of weeds. Sol. B was applied in the same manner on a similar adjacent plot containing the same variety of weeds. The temperature was in the mid-80's (° F.) during the test period with no rain.
The test plots were observed daily.

[7] = test system: target weed; experiment: General observations on time to necrosis or kill of weeds

Row | SMILES | % Necrosis After 1 Day [1] | % Control 5 Days [1] | % Control 9 Days [1] | % Control 21 Days [1] | % Necrosis Day 1 [2] | % Necrosis Day 3 [2] | % Control Day 9 [2] | % Control Day 12 [2] | % Control Day 15 [2] | % Control Day 19 [2] | % Necrosis After 1 Day [3] | % Necrosis After 3 Day [3] | % Control 5 Days [3] | % Control 9 Days [3] | % Control 21 Days [3] | % Necrosis After 1 Day [4] | % Necrosis After 3 Day [4] | % Control 5 Days [4] | % Control 9 Days [4] | % Control 21 Days [4] | also measured
1 | COc1cc(Cl)nc(NC(=O)NS(=O)(=O)c2ccccc2C(=O)O)n1 [Chlorimuron] | 0% | 48% | 53% | 23% |  |  |  |  |  |  |  |  |  |  |  |  |  |  |  |  | 
2 | COC(=O)CCCCCCCC(=O)OC [DMA, Dimethyl azelate] | 0% | 0% | 0% | 0% | 49% | 53% | 33% | 21% | 18% | 13% | 18% | 15% | 13% | 0% | 0% | 13% | 15% | 8% | 0% | 0% | % Epinasty Day 5 (leaf distortion and downward twisting) ([5]; Day 5, 2,4-D ester 0.3 % W/W): 5%; % Control Day 7 ([5]; Day 7, 2,4-D ester 0.3 % W/W): 3%; % Control Day 10 ([5]; Day 10, 2,4-D ester 0.3 % W/W): 0%; % Control Day 14 ([5]; Day 14, 2,4-D ester 0.3 % W/W): 0%; % Control Day 21 ([5]; Day 21, 2,4-D ester 0.3 % W/W): 0%; response of velvetleaf, in words ([1]; dimethyl azelate alone, 1.5 % W/W): tolerant
3 | O=C(O)CNCP(=O)(O)O [Glyphosate] |  |  |  |  | 0% | 0% | 53% | 100% | 100% | 100% |  |  |  |  |  |  |  |  |  |  | visual effect on the weeds of the plot, in words [6]: unaffected; time for weed and grass necrosis to approach 100% ([7]; without the addition of dimethyl azelate): 3 to 4 days; minimal necrosis times ([7]; without the diester): three to four
4 | CCC/C(=N\OCC)C1=C(O)CC(CC(C)SCC)CC1=O (stereo not shown) [Sethoxydin] |  |  |  |  |  |  |  |  |  |  | 0% | 3% | 10% | 40% | 88% | 0% | 3% | 24% | 79% | 94% | 
